From patent US20250041216A1, “Methotrexate Composition” (Rosemont Pharmaceuticals Ltd., priority 2012, published 2025)

Assay: Stability studies of example 1 formulation at different pH and buffer strength, visual precipitate (Table 3)
Type: physicochemical
Details: pH values below 6.0, over time
Procedure: Batches were prepared at various pHs in the range 5.6-6.0 and were prepared at ½, 1/10th and 1/20th the original buffer strength of example 1 (i.e. the citric acid monohydrate and disodium hydrogen phosphate dihydrate buffer system). The original buffer strength was taken from a citrate-phosphate buffer table (http://microscopy.berkeley.edu/Resources/instruction/buffers.html).
The stability studies were undertaken using the example 1 formulation but using either a citrate-phosphate buffer system at half the strength (i.e. 43 mmol) or 1/10th of the strength (i.e. 8.7 mmol) compared to that of example 1. The formulations were adjusted to 5 different pH values; 5.6, 5.7, 5.8, 5.9 and 6.0. One set of formulations were stored at 5° C. and one set of formulations were stored at 25° C. for each buffer strength and each pH value for the duration of the study. The study took place over a 6-month time period.

In the case of `CN(Cc1cnc2nc(N)nc(N)c2n1)c1ccc(C(=O)N[C@@H](CCC(=O)O)C(=O)O)cc1` [Methotrexate], the “Precipitation out of solution” value was “precipitate out of solution over time”.
